In US20080090734A1, “DRUG SCREENING AND TARGET IDENTIFICATION USING SPR IMAGING OF TARGET PROTEIN ARRAYS” (The Trustees of California State University, priority 2006, published 2008):

These compounds were tested on A. baumannii clinical isolate LAC 01 (assay: Antibiotic susceptibility profile). Settings: not given.
Format: cell-based, Acinetobacter baumannii
Set-up: key: Resistance; Intermediate; Susceptible
Source text: (§1) We obtained over thirty clinical isolates of A. baumannii from nosocomial infections in New York City and Los Angeles. […] Only antibiotics with breakpoints for A. baumannii were used. […] Isolates LA 01 to 20 were acquired from Los Angels County while NY-A to NY-H were obtained from New York City.
(§2) Antibiotic susceptibility profiles of clinical isolates of A. baumannii and reference strains. R, I, and S denote Resistance, Intermediate and Susceptible, respectively. Genetic Profiling of Clinical Isolates of A. baumannii

Structure (SMILES) | Antibiotic susceptibility
COc1c(N2CCNC(C)C2)c(F)cc2c(=O)c(C(=O)O)cn(C3CC3)c12 (stereo not drawn) [GAT, Gatifloxacin] | R

What follows are compounds tested on A. baumannii clinical isolate LAC 02 (assay: Antibiotic susceptibility profile). Settings: not given.
Format: cell-based, Acinetobacter baumannii
Set-up: key: Resistance; Intermediate; Susceptible
Source text: as §1, §2

Structure (SMILES) | Antibiotic susceptibility
COc1c(N2CCNC(C)C2)c(F)cc2c(=O)c(C(=O)O)cn(C3CC3)c12 (stereo not drawn) [GAT, Gatifloxacin] | R

The compounds below were run on A. baumannii clinical isolate LAC 03 (assay: Antibiotic susceptibility profile). Settings: not given.
Format: cell-based, Acinetobacter baumannii
Set-up: key: Resistance; Intermediate; Susceptible
Source text: as §1, §2

Structure (SMILES) | Antibiotic susceptibility
COc1c(N2CCNC(C)C2)c(F)cc2c(=O)c(C(=O)O)cn(C3CC3)c12 (stereo not drawn) [GAT, Gatifloxacin] | R

These compounds were tested on A. baumannii clinical isolate LAC 04 (assay: Antibiotic susceptibility profile). Settings: not given.
Format: cell-based, Acinetobacter baumannii
Set-up: key: Resistance; Intermediate; Susceptible
Source text: as §1, §2

Structure (SMILES) | Antibiotic susceptibility
COc1c(N2CCNC(C)C2)c(F)cc2c(=O)c(C(=O)O)cn(C3CC3)c12 (stereo not drawn) [GAT, Gatifloxacin] | S

These compounds were tested on A. baumannii clinical isolate LAC 05 (assay: Antibiotic susceptibility profile). Settings: not given.
Format: cell-based, Acinetobacter baumannii
Set-up: key: Resistance; Intermediate; Susceptible
Source text: as §1, §2

Structure (SMILES) | Antibiotic susceptibility
COc1c(N2CCNC(C)C2)c(F)cc2c(=O)c(C(=O)O)cn(C3CC3)c12 (stereo not drawn) [GAT, Gatifloxacin] | R

What follows are compounds tested on A. baumannii clinical isolate LAC 06 (assay: Antibiotic susceptibility profile). Settings: not given.
Format: cell-based, Acinetobacter baumannii
Set-up: key: Resistance; Intermediate; Susceptible
Source text: as §1, §2

Structure (SMILES) | Antibiotic susceptibility
COc1c(N2CCNC(C)C2)c(F)cc2c(=O)c(C(=O)O)cn(C3CC3)c12 (stereo not drawn) [GAT, Gatifloxacin] | S

The compounds below were run on A. baumannii clinical isolate LAC 07 (assay: Antibiotic susceptibility profile). Settings: not given.
Format: cell-based, Acinetobacter baumannii
Set-up: key: Resistance; Intermediate; Susceptible
Source text: as §1, §2

Structure (SMILES) | Antibiotic susceptibility
COc1c(N2CCNC(C)C2)c(F)cc2c(=O)c(C(=O)O)cn(C3CC3)c12 (stereo not drawn) [GAT, Gatifloxacin] | R

What follows are compounds tested on A. baumannii clinical isolate LAC 08 (assay: Antibiotic susceptibility profile). Settings: not given.
Format: cell-based, Acinetobacter baumannii
Set-up: key: Resistance; Intermediate; Susceptible
Source text: as §1, §2

Structure (SMILES) | Antibiotic susceptibility
COc1c(N2CCNC(C)C2)c(F)cc2c(=O)c(C(=O)O)cn(C3CC3)c12 (stereo not drawn) [GAT, Gatifloxacin] | R

Each compound was assayed on A. baumannii clinical isolate LAC 09 (assay: Antibiotic susceptibility profile). Settings: not given.
Format: cell-based, Acinetobacter baumannii
Set-up: key: Resistance; Intermediate; Susceptible
Source text: as §1, §2

Structure (SMILES) | Antibiotic susceptibility
COc1c(N2CCNC(C)C2)c(F)cc2c(=O)c(C(=O)O)cn(C3CC3)c12 (stereo not drawn) [GAT, Gatifloxacin] | R

Each compound was assayed on A. baumannii clinical isolate LAC 10 (assay: Antibiotic susceptibility profile). Settings: not given.
Format: cell-based, Acinetobacter baumannii
Set-up: key: Resistance; Intermediate; Susceptible
Source text: as §1, §2

Structure (SMILES) | Antibiotic susceptibility
COc1c(N2CCNC(C)C2)c(F)cc2c(=O)c(C(=O)O)cn(C3CC3)c12 (stereo not drawn) [GAT, Gatifloxacin] | R

The compounds below were run on A. baumannii clinical isolate LAC 11 (assay: Antibiotic susceptibility profile). Settings: not given.
Format: cell-based, Acinetobacter baumannii
Set-up: key: Resistance; Intermediate; Susceptible
Source text: as §1, §2

Structure (SMILES) | Antibiotic susceptibility
COc1c(N2CCNC(C)C2)c(F)cc2c(=O)c(C(=O)O)cn(C3CC3)c12 (stereo not drawn) [GAT, Gatifloxacin] | R

Each compound was assayed on A. baumannii clinical isolate LAC 12 (assay: Antibiotic susceptibility profile). Settings: not given.
Format: cell-based, Acinetobacter baumannii
Set-up: key: Resistance; Intermediate; Susceptible
Source text: as §1, §2

Structure (SMILES) | Antibiotic susceptibility
COc1c(N2CCNC(C)C2)c(F)cc2c(=O)c(C(=O)O)cn(C3CC3)c12 (stereo not drawn) [GAT, Gatifloxacin] | R

The compounds below were run on A. baumannii clinical isolate LAC 13 (assay: Antibiotic susceptibility profile). Settings: not given.
Format: cell-based, Acinetobacter baumannii
Set-up: key: Resistance; Intermediate; Susceptible
Source text: as §1, §2

Structure (SMILES) | Antibiotic susceptibility
COc1c(N2CCNC(C)C2)c(F)cc2c(=O)c(C(=O)O)cn(C3CC3)c12 (stereo not drawn) [GAT, Gatifloxacin] | R

Each compound was assayed on A. baumannii clinical isolate LAC 14 (assay: Antibiotic susceptibility profile). Settings: not given.
Format: cell-based, Acinetobacter baumannii
Set-up: key: Resistance; Intermediate; Susceptible
Source text: as §1, §2

Structure (SMILES) | Antibiotic susceptibility
COc1c(N2CCNC(C)C2)c(F)cc2c(=O)c(C(=O)O)cn(C3CC3)c12 (stereo not drawn) [GAT, Gatifloxacin] | R

Each compound was assayed on A. baumannii clinical isolate LAC 15 (assay: Antibiotic susceptibility profile). Settings: not given.
Format: cell-based, Acinetobacter baumannii
Set-up: key: Resistance; Intermediate; Susceptible
Source text: as §1, §2

Structure (SMILES) | Antibiotic susceptibility
COc1c(N2CCNC(C)C2)c(F)cc2c(=O)c(C(=O)O)cn(C3CC3)c12 (stereo not drawn) [GAT, Gatifloxacin] | R

Each compound was assayed on A. baumannii clinical isolate LAC 16 (assay: Antibiotic susceptibility profile). Settings: not given.
Format: cell-based, Acinetobacter baumannii
Set-up: key: Resistance; Intermediate; Susceptible
Source text: as §1, §2

Structure (SMILES) | Antibiotic susceptibility
COc1c(N2CCNC(C)C2)c(F)cc2c(=O)c(C(=O)O)cn(C3CC3)c12 (stereo not drawn) [GAT, Gatifloxacin] | R

What follows are compounds tested on A. baumannii clinical isolate LAC 17 (assay: Antibiotic susceptibility profile). Settings: not given.
Format: cell-based, Acinetobacter baumannii
Set-up: key: Resistance; Intermediate; Susceptible
Source text: as §1, §2

Structure (SMILES) | Antibiotic susceptibility
COc1c(N2CCNC(C)C2)c(F)cc2c(=O)c(C(=O)O)cn(C3CC3)c12 (stereo not drawn) [GAT, Gatifloxacin] | R

These compounds were tested on A. baumannii clinical isolate LAC 18 (assay: Antibiotic susceptibility profile). Settings: not given.
Format: cell-based, Acinetobacter baumannii
Set-up: key: Resistance; Intermediate; Susceptible
Source text: as §1, §2

Structure (SMILES) | Antibiotic susceptibility
COc1c(N2CCNC(C)C2)c(F)cc2c(=O)c(C(=O)O)cn(C3CC3)c12 (stereo not drawn) [GAT, Gatifloxacin] | R

These compounds were tested on A. baumannii clinical isolate LAC 19 (assay: Antibiotic susceptibility profile). Settings: not given.
Format: cell-based, Acinetobacter baumannii
Set-up: key: Resistance; Intermediate; Susceptible
Source text: as §1, §2

Structure (SMILES) | Antibiotic susceptibility
COc1c(N2CCNC(C)C2)c(F)cc2c(=O)c(C(=O)O)cn(C3CC3)c12 (stereo not drawn) [GAT, Gatifloxacin] | I

These compounds were tested on A. baumannii clinical isolate LAC 20 (assay: Antibiotic susceptibility profile). Settings: not given.
Format: cell-based, Acinetobacter baumannii
Set-up: key: Resistance; Intermediate; Susceptible
Source text: as §1, §2

Structure (SMILES) | Antibiotic susceptibility
COc1c(N2CCNC(C)C2)c(F)cc2c(=O)c(C(=O)O)cn(C3CC3)c12 (stereo not drawn) [GAT, Gatifloxacin] | R

The compounds below were run on A. baumannii clinical isolate NY A (assay: Antibiotic susceptibility profile). Settings: not given.
Format: cell-based, Acinetobacter baumannii
Set-up: key: Resistance; Intermediate; Susceptible
Source text: as §1, §2

Structure (SMILES) | Antibiotic susceptibility
COc1c(N2CCNC(C)C2)c(F)cc2c(=O)c(C(=O)O)cn(C3CC3)c12 (stereo not drawn) [GAT, Gatifloxacin] | R

The compounds below were run on A. baumannii clinical isolate NY B (assay: Antibiotic susceptibility profile). Settings: not given.
Format: cell-based, Acinetobacter baumannii
Set-up: key: Resistance; Intermediate; Susceptible
Source text: as §1, §2

Structure (SMILES) | Antibiotic susceptibility
COc1c(N2CCNC(C)C2)c(F)cc2c(=O)c(C(=O)O)cn(C3CC3)c12 (stereo not drawn) [GAT, Gatifloxacin] | R

These compounds were tested on A. baumannii clinical isolate NY C (assay: Antibiotic susceptibility profile). Settings: not given.
Format: cell-based, Acinetobacter baumannii
Set-up: key: Resistance; Intermediate; Susceptible
Source text: as §1, §2

Structure (SMILES) | Antibiotic susceptibility
COc1c(N2CCNC(C)C2)c(F)cc2c(=O)c(C(=O)O)cn(C3CC3)c12 (stereo not drawn) [GAT, Gatifloxacin] | R

These compounds were tested on A. baumannii clinical isolate NY D (assay: Antibiotic susceptibility profile). Settings: not given.
Format: cell-based, Acinetobacter baumannii
Set-up: key: Resistance; Intermediate; Susceptible
Source text: as §1, §2

Structure (SMILES) | Antibiotic susceptibility
COc1c(N2CCNC(C)C2)c(F)cc2c(=O)c(C(=O)O)cn(C3CC3)c12 (stereo not drawn) [GAT, Gatifloxacin] | R

These compounds were tested on A. baumannii clinical isolate NY E (assay: Antibiotic susceptibility profile). Settings: not given.
Format: cell-based, Acinetobacter baumannii
Set-up: key: Resistance; Intermediate; Susceptible
Source text: as §1, §2

Structure (SMILES) | Antibiotic susceptibility
COc1c(N2CCNC(C)C2)c(F)cc2c(=O)c(C(=O)O)cn(C3CC3)c12 (stereo not drawn) [GAT, Gatifloxacin] | R

What follows are compounds tested on A. baumannii clinical isolate NY F (assay: Antibiotic susceptibility profile). Settings: not given.
Format: cell-based, Acinetobacter baumannii
Set-up: key: Resistance; Intermediate; Susceptible
Source text: as §1, §2

Structure (SMILES) | Antibiotic susceptibility
COc1c(N2CCNC(C)C2)c(F)cc2c(=O)c(C(=O)O)cn(C3CC3)c12 (stereo not drawn) [GAT, Gatifloxacin] | R

What follows are compounds tested on A. baumannii clinical isolate NY G (assay: Antibiotic susceptibility profile). Settings: not given.
Format: cell-based, Acinetobacter baumannii
Set-up: key: Resistance; Intermediate; Susceptible
Source text: as §1, §2

Structure (SMILES) | Antibiotic susceptibility
COc1c(N2CCNC(C)C2)c(F)cc2c(=O)c(C(=O)O)cn(C3CC3)c12 (stereo not drawn) [GAT, Gatifloxacin] | R

These compounds were tested on A. baumannii clinical isolate NY H (assay: Antibiotic susceptibility profile). Settings: not given.
Format: cell-based, Acinetobacter baumannii
Set-up: key: Resistance; Intermediate; Susceptible
Source text: as §1, §2

Structure (SMILES) | Antibiotic susceptibility
COc1c(N2CCNC(C)C2)c(F)cc2c(=O)c(C(=O)O)cn(C3CC3)c12 (stereo not drawn) [GAT, Gatifloxacin] | R

The compounds below were run on A. baumannii reference strain 15839 (assay: Antibiotic susceptibility profile). Settings: strain 15839 (ATCC).
Format: cell-based, Acinetobacter baumannii
Set-up: key: Resistance; Intermediate; Susceptible
Source text: as §1, §2

Structure (SMILES) | Antibiotic susceptibility
COc1c(N2CCNC(C)C2)c(F)cc2c(=O)c(C(=O)O)cn(C3CC3)c12 (stereo not drawn) [GAT, Gatifloxacin] | R

What follows are compounds tested on A. baumannii reference strain 17978 (assay: Antibiotic susceptibility profile). Settings: strain 17978 (ATCC).
Format: cell-based, Acinetobacter baumannii
Set-up: key: Resistance; Intermediate; Susceptible
Source text: as §1, §2

Structure (SMILES) | Antibiotic susceptibility
COc1c(N2CCNC(C)C2)c(F)cc2c(=O)c(C(=O)O)cn(C3CC3)c12 (stereo not drawn) [GAT, Gatifloxacin] | S

These compounds were tested on A. baumannii reference strain 19606 (assay: Antibiotic susceptibility profile). Settings: strain 19606 (ATCC).
Format: cell-based, Acinetobacter baumannii
Set-up: key: Resistance; Intermediate; Susceptible
Source text: as §1, §2

Structure (SMILES) | Antibiotic susceptibility
COc1c(N2CCNC(C)C2)c(F)cc2c(=O)c(C(=O)O)cn(C3CC3)c12 (stereo not drawn) [GAT, Gatifloxacin] | S

The compounds below were run on A. baumannii reference strain AYE (assay: Antibiotic susceptibility profile). Settings: not given.
Format: cell-based, Acinetobacter baumannii
Set-up: key: Resistance; Intermediate; Susceptible
Source text: as §1, §2

Structure (SMILES) | Antibiotic susceptibility
COc1c(N2CCNC(C)C2)c(F)cc2c(=O)c(C(=O)O)cn(C3CC3)c12 (stereo not drawn) [GAT, Gatifloxacin] | I

These compounds were tested on A. baumannii reference strain SDF (assay: Antibiotic susceptibility profile). Settings: not given.
Format: cell-based, Acinetobacter baumannii
Set-up: key: Resistance; Intermediate; Susceptible
Source text: as §1, §2

Structure (SMILES) | Antibiotic susceptibility
COc1c(N2CCNC(C)C2)c(F)cc2c(=O)c(C(=O)O)cn(C3CC3)c12 (stereo not drawn) [GAT, Gatifloxacin] | S
